Measurements: US12479895B2, “C-terminal CDNF and MANF fragments, pharmaceutical compositions comprising same and uses thereof” (MyNeuroCure Oy, priority 2018, dated 2025)

Assays:
ER stressed SCG neurons = test: Survival of tunicamycin-treated (ER stressed) SCG sympathetic neurons after microinjection; assay type: cell-based, mice; conditions: for survived neurons as % compared to neurons grown in the presence of NGF: microinjected into cytoplasm, CDNF (400); for Fold change of survived neurons compared to neurons injected with PBS: data of Table 1 divided by values of PBS
Protocol: Non-neuronal cells were removed by extensive preplating. Almost pure neurons were cultured in polyornithine/laminin (Sigma)-coated 35-mm plastic dishes in the small-size standard microislands in the Neurobasal medium and B27 supplement (Invitrogen/Gibco) in the presence of 30 ng/ml mouse nerve growth factor (NGF) (Promega) for 5-6 days. NGF was deprived by extensive washing and addition of the function-blocking anti-NGF antibodies (Roche). The neurons were pressure-microinjected with special neuronal microinjection equipment (Hellman et al., 2011; Hamner et al., 2001; Lindholm et al., 2002; Sun et al., 2001; Yu et al., 2003)(Sun et al., 2001; Sun et al., 2003). For the survival assay, all neurons on the microislands were counted in the beginning (initial number) and the end (three days) of the experiment and expressed as % of initial.
Microinjection of the sympathetic neurons was performed as described earlier (Yu, L. Y., Jokitalo, E., Sun, Y. F., Mehlen, P., Lindholm, D., Saarma, M., and Arumae, U. (2003) J Cell Biol. 163, 987-997). Plasmids for CDNF have been described earlier. Briefly, newborn mouse SCG neurons were grown with NGF (Promega) for 5-6 days then the nuclei were microinjected with the expression plasmids for full-length (FL)-CDNF and C-CDNF together with a reporter plasmid for enhanced green fluorescent protein (EGFP), using vector concentration of 10 ng/ul in each experiment. […] For protein microinjection, recombinant full length (FL)-CDNF, C-CDNF proteins in PBS at 200 ng/ul were microinjected directly into the cytoplasm together with fluorescent reporter Dextran Texas Red (MW 70000 Da) (Invitrogen, Molecular Probes) that facilitates identification of the successfully injected neurons. Next day tunicamycin (2 μM) was added, and after 3 days the living fluorescent neurons were counted. Living fluorescent (EGFP-expressing or Dextran Texas Red-containing) neurons were “blindly” counted three days later and expressed as percent of initial living fluorescent neurons counted 2-3 hours after microinjection. The experiments with plasmids were repeated on independent cultures 5 times for plasmid experiment, whereas four independent protein injection experiments were performed. On average, 50-80 neurons were successfully injected per experimental group. The results were expressed as the mean±the SEM. Data of each experimental group was compared with control plasmid PCR3.1 (vector) or PBS (in the protein injection experiments) by one-way ANOVA and post hoc Dunnett's t test. The null hypothesis was rejected at p<0.05.

dopamine neurons = test: Survival of TH-positive dopamine neurons in dissociated midbrain floor cultures; assay type: cell-based, mouse; conditions: for Fold change of survived neurons compared to neurons grown without growth factors: data of Table 3 divided by values of no factor
Protocol: To study the dopamine neurons (Yu et al., 2008; Yu and Arumae, 2008), the midbrain floors were dissected from the ventral mesencephali of 13.5-d-old NMRI strain mouse embryos. Tissues were incubated with 0.5% trypsin (ICN Biomedical), then mechanically dissociated using a large fire-polished Pasteur pipette. The neurons were grown on the poly-L-ornithine-coated (Sigma) 96-well culture plates in DMEM/F12 medium (Invitrogen) containing N2 supplement (Invitrogen) in the presence or absence of GDNF (100 ng/ml) or with CDNF, MANF, C-CDNF and C-MANF polypeptides at different concentrations for five days. Same amount of the neurons were plated to each well at the beginning of the experiments. The cultures without added neurotrophic factors served as the negative control. As the midbrain cultures contain several neuronal types, the cultures were fixed and immunostained with the antibodies to tyrosine hydroxylase (TH) (Millipore), a specific marker for the dopaminergic neurons. Images of each well were scanned by CellInsight™ and immunopositive neurons were counted by CellProfiler and CellProfiler analyst software. Data are expressed as a percentage of GDNF-maintained TH-positive neurons. All experiments were repeated at least three times on the independent cultures. The results were expressed as the mean the SEM and were tested for the significance by either one-way ANOVA and Tukey's post hoc test or by two-tailed Student's t-test. The null hypothesis was rejected at P≤0.05.

## VDLRKMRVAELKQILHSWGEECRACAEKTDYVNLIQELAPKYA (listed as Homo sapiens) [pep6]
ER stressed SCG neurons; Table 1A (FIG. 14), AVG of exp1-2, tunicamycin 2 μM
  survived neurons as % compared to neurons grown in the presence of NGF: 78.47 % NGF
ER stressed SCG neurons; Table 1A (FIG. 14), exp1, tunicamycin 2 μM, counted after 3 days
  survived neurons as % compared to neurons grown in the presence of NGF: 81.94 % NGF
ER stressed SCG neurons; Table 1A (FIG. 14), exp2, tunicamycin 2 μM, counted after 3 days
  survived neurons as % compared to neurons grown in the presence of NGF: 75.00 % NGF
ER stressed SCG neurons; Table 2, AVG
  Fold change of survived neurons compared to neurons injected with PBS: 2.14 Fold to PBS
ER stressed SCG neurons; Table 2, exp1
  Fold change of survived neurons compared to neurons injected with PBS: 2.39 Fold to PBS
ER stressed SCG neurons; Table 2, exp2
  Fold change of survived neurons compared to neurons injected with PBS: 1.89 Fold to PBS
Dopamine neurons; Table 3A (FIG. 15), AVG, 1 ng/ml, 5 days
  survived neurons as % compared to neurons grown in the presence of GDNF: 65.97 % GDNF
Dopamine neurons; Table 3A (FIG. 15), AVG, 10 ng/ml, 5 days
  survived neurons as % compared to neurons grown in the presence of GDNF: 75.95 % GDNF
Dopamine neurons; Table 3A (FIG. 15), AVG, 100 ng/ml, 5 days
  survived neurons as % compared to neurons grown in the presence of GDNF: 73.52 % GDNF
Dopamine neurons; Table 3A (FIG. 15), AVG, 1000 ng/ml, 5 days
  survived neurons as % compared to neurons grown in the presence of GDNF: 70.75 % GDNF
Dopamine neurons; Table 3A (FIG. 15), exp1, 1 ng/ml, 5 days
  survived neurons as % compared to neurons grown in the presence of GDNF: 62.89 % GDNF
Dopamine neurons; Table 3A (FIG. 15), exp1, 10 ng/ml, 5 days
  survived neurons as % compared to neurons grown in the presence of GDNF: 66.29 % GDNF
Dopamine neurons; Table 3A (FIG. 15), exp1, 100 ng/ml, 5 days
  survived neurons as % compared to neurons grown in the presence of GDNF: 71.71 % GDNF
Dopamine neurons; Table 3A (FIG. 15), exp1, 1000 ng/ml, 5 days
  survived neurons as % compared to neurons grown in the presence of GDNF: 63.01 % GDNF
Dopamine neurons; Table 3A (FIG. 15), exp2, 1 ng/ml, 5 days
  survived neurons as % compared to neurons grown in the presence of GDNF: 77.34 % GDNF
Dopamine neurons; Table 3A (FIG. 15), exp2, 10 ng/ml, 5 days
  survived neurons as % compared to neurons grown in the presence of GDNF: 83.75 % GDNF
Dopamine neurons; Table 3A (FIG. 15), exp2, 100 ng/ml, 5 days
  survived neurons as % compared to neurons grown in the presence of GDNF: 71.86 % GDNF
Dopamine neurons; Table 3A (FIG. 15), exp2, 1000 ng/ml, 5 days
  survived neurons as % compared to neurons grown in the presence of GDNF: 67.06 % GDNF
Dopamine neurons; Table 3A (FIG. 15), exp3, 1 ng/ml, 5 days
  survived neurons as % compared to neurons grown in the presence of GDNF: 57.68 % GDNF
Dopamine neurons; Table 3A (FIG. 15), exp3, 10 ng/ml, 5 days
  survived neurons as % compared to neurons grown in the presence of GDNF: 77.81 % GDNF
Dopamine neurons; Table 3A (FIG. 15), exp3, 100 ng/ml, 5 days
  survived neurons as % compared to neurons grown in the presence of GDNF: 76.97 % GDNF
Dopamine neurons; Table 3A (FIG. 15), exp3, 1000 ng/ml, 5 days
  survived neurons as % compared to neurons grown in the presence of GDNF: 82.17 % GDNF
Dopamine neurons; Table 4, AVG, 1 ng/ml
  Fold change of survived neurons compared to neurons grown without growth factors: 1.07 fold
Dopamine neurons; Table 4, AVG, 10 ng/ml
  Fold change of survived neurons compared to neurons grown without growth factors: 1.23 fold
Dopamine neurons; Table 4, AVG, 100 ng/ml
  Fold change of survived neurons compared to neurons grown without growth factors: 1.19 fold
Dopamine neurons; Table 4, AVG, 1000 ng/ml
  Fold change of survived neurons compared to neurons grown without growth factors: 1.15 fold
Dopamine neurons; Table 4, exp1, 1 ng/ml
  Fold change of survived neurons compared to neurons grown without growth factors: 1.10 fold
Dopamine neurons; Table 4, exp1, 10 ng/ml
  Fold change of survived neurons compared to neurons grown without growth factors: 1.16 fold
Dopamine neurons; Table 4, exp1, 100 ng/ml
  Fold change of survived neurons compared to neurons grown without growth factors: 1.25 fold
Dopamine neurons; Table 4, exp1, 1000 ng/ml
  Fold change of survived neurons compared to neurons grown without growth factors: 1.10 fold
Dopamine neurons; Table 4, exp2, 1 ng/ml
  Fold change of survived neurons compared to neurons grown without growth factors: 1.23 fold
Dopamine neurons; Table 4, exp2, 10 ng/ml
  Fold change of survived neurons compared to neurons grown without growth factors: 1.33 fold
Dopamine neurons; Table 4, exp2, 100 ng/ml
  Fold change of survived neurons compared to neurons grown without growth factors: 1.14 fold
Dopamine neurons; Table 4, exp2, 1000 ng/ml
  Fold change of survived neurons compared to neurons grown without growth factors: 1.06 fold
Dopamine neurons; Table 4, exp3, 1 ng/ml
  Fold change of survived neurons compared to neurons grown without growth factors: 0.89 fold
Dopamine neurons; Table 4, exp3, 10 ng/ml
  Fold change of survived neurons compared to neurons grown without growth factors: 1.20 fold
Dopamine neurons; Table 4, exp3, 100 ng/ml
  Fold change of survived neurons compared to neurons grown without growth factors: 1.19 fold
Dopamine neurons; Table 4, exp3, 1000 ng/ml
  Fold change of survived neurons compared to neurons grown without growth factors: 1.27 fold

## RVAELKQILHSWGEECRACAEKTDYVNLIQELAPKYA (listed as Homo sapiens) [pep8]
ER stressed SCG neurons; Table 1B (FIG. 16), exp1, tunicamycin 2 μM, counted after 3 days
  survived neurons as % compared to neurons grown in the presence of NGF: 77.94 % NGF
ER stressed SCG neurons; Table 1B (FIG. 16), exp2, tunicamycin 2 μM, counted after 3 days
  survived neurons as % compared to neurons grown in the presence of NGF: 65.57 % NGF
ER stressed SCG neurons; Table 1B (FIG. 16), exp3, tunicamycin 2 μM, counted after 3 days
  survived neurons as % compared to neurons grown in the presence of NGF: 73.91 % NGF
ER stressed SCG neurons; protein or peptide microinjected into the cytoplasm, tunicamycin 2 μM, living fluorescent neurons counted after 3 days
  rescue of ER stressed SCG neurons (result in words): rescue
Dopamine neurons; Table 3B (FIG. 17), AVG, 1 ng/ml, 5 days
  survived neurons as % compared to neurons grown in the presence of GDNF: 64.02 % GDNF
Dopamine neurons; Table 3B (FIG. 17), AVG, 10 ng/ml, 5 days
  survived neurons as % compared to neurons grown in the presence of GDNF: 75.69 % GDNF
Dopamine neurons; Table 3B (FIG. 17), AVG, 100 ng/ml, 5 days
  survived neurons as % compared to neurons grown in the presence of GDNF: 85.95 % GDNF
Dopamine neurons; Table 3B (FIG. 17), AVG, 1000 ng/ml, 5 days
  survived neurons as % compared to neurons grown in the presence of GDNF: 81.43 % GDNF
Dopamine neurons; added to the culture medium, 5 days, TH-positive neurons counted
  protection of dopaminergic neurons in culture (result in words): best protective effect
